24 compounds from patent US9580411B2, “Substituted sulfonamide compounds” (Hoffmann-La Roche Inc., priority 2012, dated 2017) can be followed below.

pIC50: −log10 of the molar value.

hTRPA1, sequence (O75762 whole entry): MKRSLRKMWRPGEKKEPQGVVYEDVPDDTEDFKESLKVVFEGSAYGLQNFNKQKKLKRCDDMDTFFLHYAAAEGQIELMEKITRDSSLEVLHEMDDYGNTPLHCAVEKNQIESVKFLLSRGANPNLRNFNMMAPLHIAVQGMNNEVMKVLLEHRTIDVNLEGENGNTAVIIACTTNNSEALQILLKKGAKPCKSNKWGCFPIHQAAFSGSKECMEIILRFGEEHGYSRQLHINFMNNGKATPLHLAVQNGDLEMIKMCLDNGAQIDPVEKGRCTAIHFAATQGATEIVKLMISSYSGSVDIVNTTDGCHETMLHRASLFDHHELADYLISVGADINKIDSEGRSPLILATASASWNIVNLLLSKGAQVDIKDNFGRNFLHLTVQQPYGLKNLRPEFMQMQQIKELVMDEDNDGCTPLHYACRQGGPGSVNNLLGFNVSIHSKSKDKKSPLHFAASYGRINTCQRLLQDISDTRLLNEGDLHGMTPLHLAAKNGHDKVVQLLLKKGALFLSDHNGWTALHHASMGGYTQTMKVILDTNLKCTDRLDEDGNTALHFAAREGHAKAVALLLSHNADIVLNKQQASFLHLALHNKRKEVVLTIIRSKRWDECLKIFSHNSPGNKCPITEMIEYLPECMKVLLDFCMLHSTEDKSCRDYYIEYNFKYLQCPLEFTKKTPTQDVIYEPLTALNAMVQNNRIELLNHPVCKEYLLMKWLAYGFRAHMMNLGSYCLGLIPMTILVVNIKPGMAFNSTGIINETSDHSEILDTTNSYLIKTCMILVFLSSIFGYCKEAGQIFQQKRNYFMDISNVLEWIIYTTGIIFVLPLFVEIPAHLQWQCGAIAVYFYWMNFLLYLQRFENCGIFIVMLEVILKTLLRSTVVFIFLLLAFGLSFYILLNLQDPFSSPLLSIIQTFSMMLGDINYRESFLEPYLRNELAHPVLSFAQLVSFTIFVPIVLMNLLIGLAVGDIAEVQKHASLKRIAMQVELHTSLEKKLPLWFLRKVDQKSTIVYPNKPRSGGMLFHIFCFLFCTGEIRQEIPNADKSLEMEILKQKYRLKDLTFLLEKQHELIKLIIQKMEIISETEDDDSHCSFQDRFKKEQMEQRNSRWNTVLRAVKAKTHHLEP

This assay concerns the target hTRPA1 (Homo sapiens (Human), UniProt O75762). The assay is described as follows: Dose response calcium flux assay (FLIPR), ChanTest hTRPA1-CHO stably transfected cell line. The class given is cell-based. The note with it: CHO-K1 Tet-On human TRPA1 cells, cinnamaldehyde agonist (final 100 uM). How it is done: IC50 Determinations of Exemplified Compounds Dose Response Assay: Chan Test hTRPA1-CHO Stably Transfected Cell Line
CHO-K1 Tet-On_HOMSA_TRPA1_Clone_20
Chinese Hamster Ovary cells, inducible expression
• Ham's F-12 with 10% tetracycline-free FBS • 1× penicillin-streptomycin • 1× glutamax • 0.01 mg/ml Blasticidin • 0.40 mg/ml Zeocin • The cell line doubling rate was ˜15 hours. […] Experiments were run at 24 hours post induction. Plating Conditions CHOK1/TRPA1 Cells: • Harvested cells with 0.025% trypsin/EDTA. • Resuspended cells in growth media without selection antibiotics. • Measured cell density and diluted to 2.4×10^5 cells/ml in media containing 1 ug/ml Doxycycline Plate 25 ul/well into 384 well black/clear tissue culture-treated plates. • Incubated overnight at 37° C. Calcium Flux Assay: Day of Assay: Reagents: • Replacement Buffer: Hank's Balanced Salt Solution, 20 mM HEPES along with 0.005% BSA and 2× Probenecid • Dye Loading Buffer: Cal-3 NW Calcium dye was prepared by dissolving the contents of one vial with […] Hank's Balanced Salt Solution containing 20 mM HEPES. • Control compounds for CHOK1/TRPA1 cells: AP-18, stock 10 mM, prepare 3.5× compound dilution in a Compound Buffer (HBSS/20 mM HEPES/0.005% BSA)—final concentration 10 uM. • Preparation of Cinnamaldehyde (agonist addition): FW=132.16 • Specific gravity=1.046 gm/cc • 1.32 gm/1.046 gm/cc=1.26 ml of stock • Add 1.74 ml DMSO=3.3 M stock • Working solution 4.5× (final 100 uM in Compound Buffer: HBSS/20 mM HEPES/0.005% BSA) • Compounds dilutions were prepared from 5 or 10 mM stock (100% DMSO): • Adjustments of volumes and concentrations were made at time of titration to reflect desired final assay concentrations. • Compounds were tested at either 20 μM three folds dilution 11 steps out or 30 μM two folds dilution 11 steps out. • 3 μl of diluted compound were transferred into Weidmann 384-well plate in duplicates side-by-side. • Compound plates were resuspended with 100 ul of HBSS/20 mM HEPES/0.005% BSA buffer (Compound Buffer): • column 1A-H: buffer/DMSO (bk) • column 2A-H: AP-18 (control antagonist for CHOK1 TRPA1 cells) • column 1I-P: ATP (control for CHOK1 teton cells) • column 2 I-P: 2APB (control antagonist for CHOK1/TRPM8 cells). Growth media was removed from the cell plates (20 ul) and 20 ul of the Replacement Buffer was added followed by addition of 25 ul of diluted dye. All three steps were performed using a Plate Washer BioTek 407. The plates were then incubated for 30′ at RT.
After incubation, both the cell and compound plates were brought to the FLIPR and 20 ul of the diluted compounds/antagonist/bk were transferred to the cell plates by the FLIPR. Plates were then incubated for 30′ at room temperature. After 30′ incubation, plates were returned to the FLIPR and 20 ul of 4.5× Cinnamaldehyde was added to the cell plates. During the compound addition as well as agonist addition, fluorescence readings were taken simultaneously from all 384 wells of the cell plate every 1.5 seconds. Five readings were taken to establish a stable baseline, then 20 ul of sample was rapidly (30 ul/sec) and simultaneously added to each well of the cell plate. The fluorescence was continuously monitored before, during and after sample/agonist addition for a total elapsed time of 100 seconds (compound addition) and 120 seconds (agonist addition). Responses (increase in peak fluorescence) in each well following agonist addition was determined. The initial fluorescence reading from each well, prior to ligand stimulation, was used a zero baseline value for the data from that well.
As a reminder, the pIC50 is the negative decadic logarithm of the IC50, by convention in mol/L. As for `CC(C)N(CC(=O)NCc1cc(-c2ccc(C(F)(F)F)nc2)ncn1)S(=O)(=O)c1ccc(F)cc1` [Example 61, 2-[(4-Fluoro-benzenesulfonyl)-isopropyl-amino]-N-[6-(6-trifluoromethyl-pyridin-3-yl)-pyrimidin-4-ylmethyl]-acetamide], the pIC50 was 6.85. Turning to `CN(CC(=O)NCc1cc(-c2ccc(C(F)(F)F)cc2)ncn1)S(=O)(=O)c1cccs1` [Example 26, 2-[methyl-(thiophene-2-sulfonyl)-amino]-N-[6-(4-trifluoromethyl-phenyl)-pyrimidin-4-ylmethyl]-acetamide], the pIC50 was 6.47.

Consider `CC(C)N(CC(=O)NCc1cc(-c2ccc(C(F)(F)F)cc2)ncn1)S(=O)(=O)c1cccnc1` [Example 56, 2-[Isopropyl-(pyridine-3-sulfonyl)-amino]-N-[6-(4-trifluoromethyl-phenyl)-pyrimidin-4-ylmethyl]-acetamide], for which the pIC50 is 6.26. The result for `O=C(CN(CCO)S(=O)(=O)c1ccc(F)cc1)NCc1cccc(-c2ccc(C(F)(F)F)cc2)c1` [Example 19, 2-[(4-Fluoro-benzenesulfonyl)-(2-hydroxy-ethyl)-amino]-N-(4′-trifluoromethyl-biphenyl-3-ylmethyl)-acetamide] reads 7.01; that for `CN(C(C)(C)C(=O)NCc1cccc(-c2ccc(C(F)(F)F)cc2)c1)S(=O)(=O)c1ccc(F)cc1` [Example 7, 2-[(4-Fluoro-benzenesulfonyl)-methyl-amino]-2-methyl-N-(4′-trifluoromethyl-biphenyl-3-ylmethyl)-propionamide], 6.10; that for `COc1ccc(CNC(=O)CN(C(C)C)S(=O)(=O)c2ccc(F)cc2)cc1-c1ccc(C(F)(F)F)cc1` [Example 47, 2-[(4-Fluoro-benzenesulfonyl)-isopropyl-amino]-N-(6-methoxy-4′-trifluoromethyl-biphenyl-3-ylmethyl)-acetamide], 7.39. The result for `CC(C)N(CC(=O)NCc1ccc(-c2cccc(C(F)(F)F)c2)cc1)S(=O)(=O)c1ccc(F)cc1` [Example 34, 2-[(4-Fluoro-benzenesulfonyl)-isopropyl-amino]-N-(3′-trifluoromethyl-biphenyl-4-ylmethyl)-acetamide] reads 5.44; that for `CC(C)N(CC(=O)NCc1cccc(-c2cnc(C(F)(F)F)cn2)c1)S(=O)(=O)c1ccc(Cl)nc1` [Example 72, 2-[(6-Chloro-pyridine-3-sulfonyl)-isopropyl-amino]-N-[3-(5-trifluoromethyl-pyrazin-2-yl)-benzyl]-acetamide], 6.63. The result for `CN(CC(=O)NCc1ccc(F)c(-c2ccc(C(F)(F)F)cc2)c1)S(=O)(=O)c1ccc(F)cc1` [Example 8, 2-[(4-Fluoro-benzenesulfonyl)-methyl-amino]-N-(6-fluoro-4′-trifluoromethyl-biphenyl-3-ylmethyl)-acetamide] reads 6.82.

On to `CN(CC(=O)NCc1cccc(-c2ccc(C(F)(F)F)cc2)c1F)S(=O)(=O)c1ccc(F)cc1` [Example 9, 2-[(4-Fluoro-benzenesulfonyl)-methyl-amino]-N-(2-fluoro-4′-trifluoromethyl-biphenyl-3-ylmethyl)-acetamide], for which the pIC50 is 5.82. As to `CCN(CC(=O)NCc1ccc(OC)c(-c2ccc(C(F)(F)F)cc2)c1)S(=O)(=O)c1ccc(F)cc1` [Example 46, 2-[Ethyl-(4-fluoro-benzenesulfonyl)-amino]-N-(6-methoxy-4′-trifluoromethyl-biphenyl-3-ylmethyl)-acetamide], the pIC50 was 6.89. In the case of `CC(C)N(CC(=O)NCc1cccc(-c2ccc(C(F)(F)F)nn2)c1)S(=O)(=O)c1ccc(F)cc1` [Example 66, 2-[(4-Fluoro-benzenesulfonyl)-isopropyl-amino]-N-[3-(6-trifluoromethyl-pyridazin-3-yl)-benzyl]-acetamide], the pIC50 is 6.77. For `CCN(CC(=O)NCc1cc(OC)cc(-c2ccc(C(F)(F)F)cc2)c1)S(=O)(=O)c1ccc(F)cc1` [Example 44, 2-[Ethyl-(4-fluoro-benzenesulfonyl)-amino]-N-(5-methoxy-4′-trifluoromethyl-biphenyl-3-ylmethyl)-acetamide], the pIC50 is 7.06. Turning to `CCN(CC(=O)NCc1ccc(F)c(-c2ccc(C(F)(F)F)cc2)c1)S(=O)(=O)c1ccc(F)cc1` [Example 14, 2-[Ethyl-(4-fluoro-benzenesulfonyl)-amino]-N-(6-fluoro-4′-trifluoromethyl-biphenyl-3-ylmethyl)-acetamide], the pIC50 is 7.43.

In the case of `CCN(CC(=O)NCc1ccc(-c2ccc(C(F)(F)F)cc2)cc1)S(=O)(=O)c1ccc(F)cc1` [Example 17, 2-[Ethyl-(4-fluoro-benzenesulfonyl)-amino]-N-(4′-trifluoromethyl-biphenyl-4-ylmethyl)-acetamide], the negative logarithm of the IC50 (pIC50) is 5.32. The result for `CC(C)N(CC(=O)NCc1cc(-c2ccc(C(F)(F)F)cc2)ccc1F)S(=O)(=O)c1ccc(F)cc1` [Example 37, 2-[(4-Fluoro-benzenesulfonyl)-isopropyl-amino]-N-(4-fluoro-4′-trifluoromethyl-biphenyl-3-ylmethyl)-acetamide] reads 7.85. The result for `CC(C)(C)N(CC(=O)NCc1cc(-c2ccc(C(F)(F)F)cc2)ncn1)S(=O)(=O)c1ccc(F)cc1` [Example 31, 2-[tert-Butyl-(4-fluoro-benzenesulfonyl)-amino]-N-[6-(4-trifluoromethyl-phenyl)-pyrimidin-4-ylmethyl]-acetamide] reads 6.42; that for `CC(C)N(CC(=O)NCc1cccc(-c2ccc(C(F)(F)F)cn2)c1)S(=O)(=O)c1ccc(F)cc1` [Example 40, 2-[(4-Fluoro-benzenesulfonyl)-isopropyl-amino]-N-[3-(5-trifluoromethyl-pyridin-2-yl)-benzyl]-acetamide], 7.17. The result for `CC(C)N(CC(=O)NCc1cc(-c2ccc(C(F)(F)F)nc2)ncn1)S(=O)(=O)c1ccc(Cl)s1` [Example 76, 2-[(5-Chloro-thiophene-2-sulfonyl)-isopropyl-amino]-N-[6-(6-trifluoromethyl-pyridin-3-yl)-pyrimidin-4-ylmethyl]-acetamide] reads 7.70; that for `O=C(CN(C1CC1)S(=O)(=O)c1ccc(F)cc1)NCc1cccc(-c2ccc(C(F)(F)F)cc2)c1` [Example 22, 2-[Cyclopropyl-(4-fluoro-benzenesulfonyl)-amino]-N-(4′-trifluoromethyl-biphenyl-3-ylmethyl)-acetamide], 6.72. On to `C[C@H](C(=O)NCc1cccc(-c2ccc(C(F)(F)F)cc2)c1)N(C)S(=O)(=O)c1ccc(F)cc1` [Example 4, (R)-2-[(4-Fluoro-benzenesulfonyl)-methyl-amino]-N-(4′-trifluoromethyl-biphenyl-3-ylmethyl)-propionamide], for which the pIC50 is 5.95. The result for `CC(C)N(CC(=O)NCc1ccc(-c2ccc(C(F)(F)F)cc2)cc1)S(=O)(=O)c1ccc(F)cc1` [Example 33, 2-[(4-Fluoro-benzenesulfonyl)-isopropyl-amino]-N-(4′-trifluoromethyl-biphenyl-4-ylmethyl)-acetamide] reads 5.66; that for `COCCN(CC(=O)NCc1cc(-c2ccc(C(F)(F)F)cc2)ncn1)S(=O)(=O)c1ccc(F)cc1` [Example 29, 2-[(4-Fluoro-benzenesulfonyl)-(2-methoxy-ethyl)-amino]-N-[6-(4-trifluoromethyl-phenyl)-pyrimidin-4-ylmethyl]-acetamide], 6.33; that for `CC(C)N(CC(=O)NCc1cc(-c2ccc(C(F)(F)F)cc2)ncn1)S(=O)(=O)c1ccc(Cl)s1` [Example 75, 2-[(5-Chloro-thiophene-2-sulfonyl)-isopropyl-amino]-N-[6-(4-trifluoromethyl-phenyl)-pyrimidin-4-ylmethyl]-acetamide], 7.60.
